Experimental data: publication PMC4096217 (Journal of Medicinal Chemistry, 2014)

Tested on: BR+ cancer cell lines (MX-1, MCF-7, ID8, L1210FR)
Assay: MTT cytotoxicity, 72 h, summarised over the four BR+ cancer cell lines
Assay type: cell-based
Settings: Table 1 entries 1 and 2

SB-T-1214 [taxoid 1]
Cytotoxicity relative to camptothecin (times stronger): 148–846 times
